From ChEMBL document CHEMBL5209582, “Membrane potential based assay for SLC6A6 using HEK-293 SLC6A6 OE cells” (2022) come the findings set out here.

The term EC50 denotes the concentration giving half of the maximal effect. A high value points to weaker potency.

This test addresses T1, Sodium- and chloride-dependent taurine transporter (Homo sapiens, UniProt P31641).
T1 sequence (P31641 whole entry): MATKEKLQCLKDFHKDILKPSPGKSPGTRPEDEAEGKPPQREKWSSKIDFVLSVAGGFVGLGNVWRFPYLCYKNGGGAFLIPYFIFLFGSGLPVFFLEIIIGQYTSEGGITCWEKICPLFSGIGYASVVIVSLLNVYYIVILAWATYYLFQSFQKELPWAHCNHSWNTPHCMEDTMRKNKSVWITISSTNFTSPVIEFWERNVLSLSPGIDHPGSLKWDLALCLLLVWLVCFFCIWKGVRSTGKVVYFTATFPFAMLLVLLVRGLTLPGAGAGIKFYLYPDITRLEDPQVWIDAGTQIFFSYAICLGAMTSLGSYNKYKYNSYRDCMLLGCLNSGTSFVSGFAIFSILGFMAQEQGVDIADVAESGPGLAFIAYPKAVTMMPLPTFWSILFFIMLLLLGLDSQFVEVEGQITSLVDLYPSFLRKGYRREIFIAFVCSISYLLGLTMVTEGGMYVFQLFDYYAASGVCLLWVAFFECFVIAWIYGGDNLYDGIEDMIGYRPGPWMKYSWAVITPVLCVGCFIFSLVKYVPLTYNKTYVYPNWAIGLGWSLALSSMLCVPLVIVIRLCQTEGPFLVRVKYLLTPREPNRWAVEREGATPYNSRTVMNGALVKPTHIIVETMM
The experiment in a line: Substrate uptake by the Taurine Transporter (TauT, SLC6A6) as assessed by the fluorescent FLIPR membrane potential dye in HEK-293 JumpIN-SLC6A6 cells (PubChem AID: 1794824). Format: functional, cell-based, HEK293.

As for `NCCS(=O)(=O)O` [TAURINE], a half-maximal effect (EC50) was put at 10 µM.
On to `NCCCC(=O)O` [GAMMA-AMINOBUTYRIC ACID], for which the response was half-maximal at 354 µM (EC50).
